From PubChem BioAssay (NCI)
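These data come from cells grown in 96-well plates and exposed to compound for 48 hours at five concentrations. GI50 marks 50% less growth. TGI denotes the concentration required for complete inhibition of growth.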

Assays:
Experiment in all cases: NCI tumour cell line growth inhibition, 48 h
K-562 leukemia = system: K-562 leukemia
IGROV1 ovarian = system: IGROV1 ovarian
RXF 393 renal = system: RXF 393 renal
SK-MEL-2 melanoma = system: SK-MEL-2 melanoma
UACC-62 melanoma = system: UACC-62 melanoma
KM12 colon = system: KM12 colon
SR leukemia = system: SR leukemia
HOP-92 NSCLC = system: HOP-92 NSCLC
HOP-62 NSCLC = system: HOP-62 NSCLC

Row | SMILES | TGI (K-562 leukemia) | TGI (IGROV1 ovarian) | TGI (RXF 393 renal) | TGI (SK-MEL-2 melanoma) | TGI (UACC-62 melanoma) | TGI (KM12 colon) | TGI (SR leukemia) | TGI (HOP-92 NSCLC) | TGI (HOP-62 NSCLC) | GI50 (SR leukemia) | GI50 (K-562 leukemia) | GI50 (HOP-92 NSCLC) | GI50 (UACC-62 melanoma) | GI50 (KM12 colon)
1 | Cc1cc2c(=O)cc(-c3ccc(F)cc3)oc2c(C(=O)O)c1C | > 100 µM | > 100 µM | > 100 µM | > 100 µM | > 100 µM | > 100 µM |  |  |  |  |  |  |  | 
2 | Cc1cc(C)c(C(=O)/C=C/c2ccccc2)c(C)c1 | > 100 µM | > 100 µM | 34.5 µM | 30.8 µM | > 100 µM | > 100 µM | > 100 µM | 58.4 µM | 76 µM |  |  |  |  | 
3 | COc1cc2c(cc1OC)[C@@H]([C@H](O)c1ccccc1)NCC2 | > 100 µM | > 100 µM | > 100 µM | > 100 µM | > 100 µM | > 100 µM | > 100 µM | > 100 µM | > 100 µM |  |  |  |  | 
4 | CC(C)(C)N=CN(C=C(c1ccccc1)c1ccccc1)C1CCCCC1 | 39.9 µM | > 100 µM | 79.2 µM | > 100 µM | > 100 µM | > 100 µM | 51 µM | 82.4 µM | > 100 µM |  |  |  |  | 
5 | O=C(CC1C(=O)Nc2ccccc2S1(=O)=O)Nc1cccc(Cl)c1 (stereo not drawn) | 38.4 µM | 33.4 µM | 31.7 µM | 84 µM | 30.3 µM |  | 40.7 µM | 32.2 µM |  |  |  |  |  | 
6 | COc1ccc2c(c1)CCN1C3=C(CCC3)C(=O)C[C@@H]21 | > 100 µM | > 100 µM | > 100 µM | > 100 µM | > 100 µM | > 100 µM | > 100 µM | > 100 µM | > 100 µM |  |  |  |  | 
7 | CCCCCCCCCCCCCCNCC(OCC)OCC |  | 30.3 µM | 22.9 µM | 28.6 µM | 33 µM | 22.2 µM |  | 26.4 µM | 31.6 µM |  |  |  |  | 
8 | Clc1ccc(C2=NOC3C4CCC(C4)C23)cc1 (stereo not drawn) | > 100 µM | > 100 µM |  | > 100 µM | > 100 µM | > 100 µM | > 100 µM | > 100 µM | > 100 µM |  |  |  |  | 
9 | Clc1cccc2c1OCC1C(c3ccccc3)=NN(c3ccccc3)C21 (stereo not drawn) | > 100 µM | > 100 µM | > 100 µM | > 100 µM |  | > 100 µM |  | > 100 µM | > 100 µM |  |  |  |  | 
10 | Brc1ccc(C2SCc3nc4ccccc4n32)cc1 (stereo not drawn) | > 100 µM | 27.3 µM | 20.9 µM | 30.4 µM | 21.1 µM | 21.1 µM | 28.3 µM | 9.66 µM | 22.4 µM |  |  |  |  | 
11 | CC/C(CC(=O)CCC(=O)Nc1ccc(C)c(C)c1)=N\NC(=O)C(N)=O | > 100 µM | > 100 µM |  |  | > 100 µM |  | > 100 µM | > 100 µM | > 100 µM |  |  |  |  | 
12 | C/C=C1\CCC2c3[nH]c4ccccc4c3CCN2C1 (stereo not drawn) | > 100 µM | > 100 µM | > 100 µM | > 100 µM | > 100 µM | > 100 µM | > 100 µM | 99.7 µM | > 100 µM |  |  |  |  | 
13 | COC[C@@H](N=CN1CCc2cc(OC)c(OC)cc2C1)C(C)(C)C | > 100 µM | > 100 µM | > 100 µM |  | > 100 µM | > 100 µM | > 100 µM | > 100 µM | > 100 µM |  |  |  |  | 
14 | O=C(Sc1sc(=S)sc1SC(=O)c1ccccc1)c1ccccc1 | > 100 µM | > 100 µM | > 100 µM | > 100 µM | 53 µM | > 100 µM |  | > 100 µM | 72.4 µM |  |  |  |  | 
15 | CCCCN1CCN(c2ccc3nc(-c4ccc5nc(-c6ccc(OCC)c(OCC)c6)[nH]c5c4)[nH]c3c2)CC1 | 2.27 µM |  |  |  | 2.18 µM | 2.99 µM | 1.19 µM | 3.17 µM |  | 0.312 µM | 0.529 µM | 1.23 µM | 0.686 µM | 1.42 µM
16 | Cc1cc(NS(=O)(=O)c2ccc(NC(=O)COC(=O)c3cccc4c(=O)c5ccccc5[nH]c34)cc2)no1 | > 100 µM | > 100 µM | > 100 µM |  | > 100 µM | > 100 µM | > 100 µM | > 100 µM | > 100 µM |  |  |  |  | 
17 | O=C1c2c(c3c4ccccc4[nH]c3c3[nH]c4ccccc4c23)C(=O)N1Cc1ccccc1 | 14.2 µM | 18.7 µM | 4.12 µM | 10.6 µM | 16.2 µM | 9.47 µM |  | 5.65 µM | 14.8 µM |  |  |  |  | 
18 | CCOP(=O)(CC(=O)C1=C(O)C(CCCCNC(=O)OC(C)(C)C)N(Cc2ccccc2)C1=O)OCC (stereo not drawn) | > 100 µM | > 100 µM | > 100 µM | > 100 µM | > 100 µM | > 100 µM | > 100 µM |  | > 100 µM |  |  |  |  | 
19 | COc1cc2ccc(CC(N)=O)cc2cc1OC | > 100 µM | > 100 µM | > 100 µM | > 100 µM | > 100 µM | > 100 µM |  | > 100 µM | > 100 µM |  |  |  |  | 
20 | O=C(NC(=O)c1cc2cc(Br)cc(Br)c2oc1=O)Oc1ccccc1 | > 100 µM | > 100 µM | 83.3 µM |  | > 100 µM | > 100 µM |  | > 100 µM | > 100 µM |  |  |  |  | 
21 | CCN(CC)CCC(=O)/C=C/c1ccc(C)cc1 | > 100 µM | 30 µM | 29.2 µM |  | 30.9 µM | 7.98 µM | 33.3 µM | 35.4 µM | 71.1 µM |  |  |  |  | 
